Converted amounts (≈) assume the structure as drawn.
Legend:
[1] = tested on: methicillin-resistant Staphylococcus aureus (MRSA); set-up: method as in PMID 32927027; conditions: read-out: biofilm formation inhibition IC50; cited from earlier work
B. subtilis ATCC 6633 [2] = assay: MIC determination, B. subtilis; type: cell-based, Bacillus subtilis; conditions: Bacillus subtilis, ATCC6633; serial dilutions, triplicate
Protocol: (§1) Serial dilutions of the test compounds were tested to determine their MIC against the most susceptible organisms. The MIC was expressed as the lowest concentration which inhibited the visible growth of the corresponding microorganism. All assays were performed in triplicate.

K. pneumoniae ATCC 13883 [3] = assay: MIC determination, K. pneumoniae; type: cell-based, Klebsiella pneumoniae; conditions: Klebsiella pneumoniae, ATCC13883; serial dilutions, triplicate
Protocol: as §1

Cell viability MTT assay = type: cell-based; conditions: human, BJ1 cells (normal skin fibroblasts)
Protocol: Cell viability testing at 5 mg/ml was carried out by colorimetric MTT assay on human normal cell line BJ1 (skin fibroblasts) to investigate the toxicity of the most broad spectrum derivatives 9, 15, 16, 18, 19, 20 and 29 (Table 3). The viability of the cells treated with the aforementioned derivatives was more than 87% at 5 mg/ml concentration. This gives indication that the compounds are tolerated and nontoxic for human cells, as the cytotoxic dose was higher than the therapeutic dose on most of microorganisms. It is worth mentioning that the safe limit of the percent of dead cells is not an absolute value and could be more than 10% as reported in previous studies.
The most broad spectrum compounds were evaluated for their cytotoxic activity against BJ1 cell line using colorimetric MTT [3-(4,5-dimethylthiazol-2-yl)-2,5-diphenyltetrazolium bromide] assay.

C. albicans ATCC 10231 [4] = assay: MIC determination, C. albicans; type: cell-based, Candida albicans; conditions: serial dilutions, triplicate; for MIC: Candida albicans, ATCC10231
Protocol: as §1

B. subtilis ATCC 6633 [5] = assay: Agar well diffusion, B. subtilis; type: cell-based; conditions: Bacillus subtilis, ATCC6633; 100 μl of test compound 20 mg/ml in DMF; ciprofloxacin and fluconazole 30 μg/ml; 24 h; mean ± SD; read-out: diameters of inhibition zone, B. subtilis ATCC 6633
Protocol: (§2) The antimicrobial activity was tested against Gram positive bacteria: Bacillus cereus (B. cereus ATCC 6629), Bacillus subtilis (B. subtilis ATCC 6633), Staphylococcus aureus (S. aureus ATCC 6538), Gram negative bacteria: Klebsiella pneumoniae (K. pneumoniae ATCC 13883), Pseudomonas aeruginosa (P. aeruginosa ATCC 27953) and Candida albicans (C. albicans ATCC 10231). Glycerol stocks were thawed upon need and propagated into nutrient broth at 37 °C. The antibacterial activity of the compounds 9-32 was carried out in vitro using the agar well diffusion method, originally reported by […] and Bauer and coworkers and described by the National Committee for Clinical Laboratory Standards (NCCLS). Bacterial strains, adjusted at […] (equivalent to 0.5 McFarland), were used to inoculate nutrient agar plates. 9-mm diameter wells were punched into the solidified nutrient agar plates using sterile cork borer and 100 μl samples of the test compounds, dissolved in dimethyl formamide (DMF) at 20 mg/ml concentrations, were added and allowed to diffuse at 4 °C for 2 h. Subsequently, the plates were incubated overnight in an upright position at 37 °C. DMF was used as a negative control while ciprofloxacin and fluconazole (30 μg/ml) served as positive controls. After 24 h incubation, the diameters of the growth inhibition zones were recorded in mm. Data was expressed as mean ± standard deviation of three replicates.

C. albicans ATCC 10231 [6] = assay: Agar well diffusion, C. albicans; type: cell-based; conditions: Candida albicans, ATCC10231; 100 μl of test compound 20 mg/ml in DMF; ciprofloxacin and fluconazole 30 μg/ml; 24 h; mean ± SD; read-out: diameters of inhibition zone, C. albicans ATCC 10231
Protocol: as §2

K. pneumoniae ATCC 13883 [7] = assay: Agar well diffusion, K. pneumoniae; type: cell-based; conditions: Klebsiella pneumoniae, ATCC13883; 100 μl of test compound 20 mg/ml in DMF; ciprofloxacin and fluconazole 30 μg/ml; 24 h; mean ± SD; read-out: diameters of inhibition zone, K. pneumoniae ATCC 13883
Protocol: as §2

S. aureus ATCC 6538 [8] = assay: MIC determination, S. aureus; type: cell-based, Staphylococcus aureus; conditions: Staphylococcus aureus, ATCC6538; serial dilutions, triplicate
Protocol: as §1

S. aureus ATCC 6538 [9] = assay: Agar well diffusion, S. aureus; type: cell-based; conditions: Staphylococcus aureus, ATCC6538; 100 μl of test compound 20 mg/ml in DMF; ciprofloxacin and fluconazole 30 μg/ml; 24 h; mean ± SD; read-out: diameters of inhibition zone, S. aureus ATCC 6538
Protocol: as §2

B. cereus ATCC 6629 [10] = assay: MIC determination, B. cereus; type: cell-based, Bacillus cereus; conditions: Bacillus cereus, ATCC6629; serial dilutions, triplicate
Protocol: as §1

B. cereus ATCC 6629 [11] = assay: Agar well diffusion, B. cereus; type: cell-based; conditions: Bacillus cereus, ATCC6629; 100 μl of test compound 20 mg/ml in DMF; ciprofloxacin and fluconazole 30 μg/ml; 24 h; mean ± SD; read-out: diameters of inhibition zone, B. cereus ATCC 6629
Protocol: as §2

Structure (SMILES)	IC50 [1]	MIC (B. subtilis ATCC 6633 [2])	MIC (K. pneumoniae ATCC 13883 [3])	viability at 5 mg/ml (Cell viability MTT assay)	MIC (C. albicans ATCC 10231 [4])	MIC, C. albicans ATCC 10231 (C. albicans ATCC 10231 [4])	zone of inhibition at 20000 µg/mL (B. subtilis ATCC 6633 [5])	zone of inhibition at 20000 µg/mL (C. albicans ATCC 10231 [6])	zone of inhibition at 20000 µg/mL (K. pneumoniae ATCC 13883 [7])	MIC (S. aureus ATCC 6538 [8])	zone of inhibition at 20000 µg/mL (S. aureus ATCC 6538 [9])	melting point	MIC (B. cereus ATCC 6629 [10])	zone of inhibition at 20000 µg/mL (B. cereus ATCC 6629 [11])
Nc1nc(-c2cccc(Br)c2)cc(-c2nc3ccccc3c(=O)[nH]2)n1 [IV]	20.7 µM													
O=c1c2ccccc2nc(CN2CCCC2)n1N=Cc1ccccc1 [Compound 15, 3-(Benzylideneamino)-2-(pyrrolidin-1-ylmethyl)quinazolin-4(3H)-one]		2000 ± 290 µg/mL (≈ 6.02 mM)	2000 µg/mL (≈ 6.02 mM)	88.4 ± 0.91%	5000 µg/mL (≈ 15 mM)	5000 ± 290 µg/mL (≈ 15 mM)	10 ± 0.33 mm	11 ± 0.11 mm	13 ± 0.41 mm	2000 ± 290 µg/mL (≈ 6.02 mM)	12 ± 0.26 mm	108 to 110 °C		
COc1ccc(C=Nn2c(CN3CCCC3)nc3ccccc3c2=O)cc1 [Compound 18, 3-[(4-Methoxybenzylidene)amino]-2-(pyrrolidin-1-ylmethyl)quinazolin-4(3H)-one]		1500 ± 290 µg/mL (≈ 4.14 mM)	2000 µg/mL (≈ 5.52 mM)	87.2 ± 2.34%	10000 ± 290 µg/mL (≈ 27.6 mM)		16 ± 0.31 mm	13 ± 0.14 mm	18 ± 0.2 mm	2500 µg/mL (≈ 6.9 mM)	14 ± 0.21 mm	118 to 120 °C	2500 ± 290 µg/mL (≈ 6.9 mM)	17 ± 0.3 mm
